Experimental data taken from patent US4558033A, “Potentiation of the effects of insulin by peptides” (Amgen, priority 1983, dated 1985).
No end group written: not given here.

Experiments:
[1] = cited from earlier work
[2] = test system: rats given an intraperitoneal glucose load; experiment: Plasma glucose in rats given an intraperitoneal glucose load, DP with and without insulin (Example 2); assay type: in vivo, Sprague-Dawley rats; conditions: for Plasma Glucose at 60 minutes: i.p. glucose load
Experimental: (§1) A study was conducted to determine the effect on plasma glucose of deletion peptide, with and without insulin, in rats given an intraperitoneal glucose load. Groups of five male Sprague-Dawley rats were involved in this study. All weighed between 160 to 168 grams and were maintained on standard laboratory diet until 18 hours prior to the test procedures. Test groups of fasted rats received, in rapid succession, 1.0 ml of 0.75 M glucose, 10 mU of insulin in admixture with 1% bovine serum albumin (BSA) in normal saline (pH 7.4), and either 0, 25, 50 or 100 μg doses of deletion peptide. Control groups of rats received glucose and 1% BSA in saline with no insulin but with similarly varying levels of deletion peptide. Plasma glucose determinations were made on blood drawn one hour after administration of test substances and the results (means, ± standard errors) of these determinations are set out in Table I below.

[3] = test system: rats given an intraperitoneal glucose load; experiment: Plasma glucose in rats given an intraperitoneal glucose load, increasing insulin doses with and without 100 μg DP (Example 3); assay type: in vivo; conditions: for Plasma Glucose at 60 minutes: i.p. glucose load
Experimental: as §1
A study was conducted under the same general procedures as Example 2 to determine the effect of increasing doses of insulin, with and without 100 μg of deletion peptide, on rats given an intraperitoneal glucose load. The results of plasma glucose determinations on blood drawn after 60 minutes are set out below in Table II.

[4] = test system: mice ob/ob, ob/+, db/db, db/m; experiment: Plasma glucose after glucose load, fixed insulin and DP doses, normal and genetically abnormal mice (Example 4); assay type: in vivo; conditions: for Plasma Glucose at 60 min: i.p. glucose, insulin 0.001 mU/10g
Experimental: (§2) A study was conducted to ascertain the effects of fixed amounts of deletion peptide and insulin on various animal models, including rats and normal and genetically abnormal mice.
(§3) Animals in test groups of five each were employed in these procedures. Sprague-Dawley rats weighed approximately 200 grams; homozygous genetically abnormal mice (ob/ob and db/db) had weights in the range of 40 to 60 grams; and heterozygous normal mice (ob/+ and db/m) all weighed approximately 25 grams. Glucose was administered intraperitoneally at a dosage of 0.05 ml/10g of a solution containing 135 mg/ml glucose, except for one group of rats which were given an oral dose of glucose comprising 1 ml of 270 mg/ml glucose solution. Insulin was administered at a dose of 0.001 mU/10g and deletion peptide was simultaneously intraperitoneally administered at a dose of 5.0 μg/10g.
(§4) The results of plasma glucose determinations performed on blood drawn one hour after administration of test materials are set out in Table III, below.

Sprague-Dawley rats = experiment: Plasma glucose after glucose load, fixed insulin and DP doses, rats (Example 4); assay type: in vivo; conditions: Rat (normal), insulin 0.001 mU/10g
Experimental: as §2, §3, §4

[5] = test system: dog, hyperglycemia induced by infusing glucose; experiment: Portal infusion of deletion peptide in dog during induced hyperglycemia with fixed insulin levels (Example 5, second study); assay type: in vivo; conditions: basal insulin alone, glucose >200 mg/deciliter
Experimental: In the second study, deletion peptide was infused portally at a rate of 1 μg/kg/min during hyperglycemia induced by infusing glucose through a peripheral catheter (to maintain glucose levels in excess of 200 mg/deciliter). Basal glucagon levels were fixed and insulin levels were fixed either at basal or four-fold basal levels.

Rhesus monkeys = experiment: Induced hyperglycemia in Rhesus monkeys, plasma glucose over two hours (Example 6); assay type: in vivo
Experimental: A study was conducted to determine the effects of deletion peptide on induced hyperglycemia in Rhesus monkeys. Blood samples were taken from normal female monkeys (in three experimental groups of three) five minutes before administration of an oral dose of 3.0 ml/kg of 0.5 g/ml glucose and intramuscular administration of either: (1) 0.5 ml/kg phosphate buffered saline (PBS), pH 7.4; (2) deletion peptide 0.1 ml/kg of 1.0 mg/ml solution in PBS; (3) deletion peptide as above combined with 0.5 ml/kg of 20 mU/ml insulin in PBS; or (4) insulin alone as above. Blood samples were then periodically withdrawn over two hours and analyzed for plasma glucose levels. Plasma glucose level data is set out in Table IV.

fat cells = conditions: compared with the 32-46 peptide findings; cited from earlier work
rabbits = conditions: cited from earlier work
normal rats [6] = conditions: cited from earlier work
normal rats [7] = experiment: In vivo glucose metabolism in normal rats
From the text: (§5) The present invention has its origins, in part, in the results of an extensive series of controlled experiments designed to study the effects of deletion peptide: (a) on in vivo glucose metabolism in normal rats; (b) on in vivo insulin-stimulated glucose uptake by normal rat liver and skeletal muscle tissue; (c) on growth of hypophysectomized rats; and (d) on in vitro glucose utilization of adipocytes isolated from normal rats.

[8] = test system: normal rat liver and skeletal muscle tissue; experiment: In vivo insulin-stimulated glucose uptake by normal rat liver and skeletal muscle tissue; conditions: administration in combination with insulin
From the text: as §5

hypophysectomized rats = experiment: Growth of hypophysectomized rats; assay type: in vivo
From the text: as §5

[9] = test system: adipocytes isolated from normal rats; experiment: In vitro glucose utilization of adipocytes isolated from normal rats; assay type: cell-based
From the text: as §5

[10] = Ongoing studies of deletion peptide biological activities in in vivo systems; conditions: preliminary evidence
From the text: The above examples establish that deletion peptide alone has no immediate and direct hypoglyamic effect within the protocols of investigations conducted to date. […] Further, certain of these effects appear to be shared by peptides disclosed and claimed in co-owned, co-pending, concurrently-filed U.S. Patent application Ser. No. 501,024, by the inventor herein and co-inventor Theodore Jones, entitled "Biologically Active Peptides Structurally Related to Regions Within Growth Hormones," the disclosures of which are incorporated by reference herein.

normal dog = conditions: portal infusion 1 μg/kg/min
Experimental: Two studies were conducted to determine the effects of deletion peptide on dogs.

normal rats [11] = conditions: cited from earlier work; remark: listed apart in the source
[12] = test system: GT-impaired strain of mice (YS/Wf Nctr); conditions: cited from earlier work
[13] = test system: insulin-stimulated fat cells of older obese rats; conditions: in vitro; cited from earlier work
[14] = after hGH administration; cited from earlier work

## peptide duplicating residues 176 through 191: peptide duplicating hGH residues 176 through 191 (FLRIVQCRSVEGSCGF; UniProt P01241 202-217, looked up, fragment)
[1]; hGH carboxy terminal fragment
  glycemic effect: hyperglycemic effect

## insulin
[2]; 10 mU insulin in 1.0% BSA in saline, 0 μg DP, fasted rats
  Plasma Glucose at 60 minutes: 8.1 ± 0.2 mmol/L
[2]; low dose of insulin in BSA alone (10 mU, 0 DP)
  effect on glycemia: without effect on glycemia
[3]; higher doses of insulin (20, 40 mU)
  effect on plasma glucose: corresponding decreases in plasma glucose
[3]; insulin 7 mU per rat, 1.0% BSA in saline, no DP
  Plasma Glucose at 60 minutes: 8.0 ± 0.3 mmol/L
[3]; insulin 7.0 mU/rat, whether or not deletion peptide was concurrently administered
  change in glycemia compared with the control group: no change in glycemia
[3]; insulin 10 mU per rat, 1.0% BSA in saline, no DP
  Plasma Glucose at 60 minutes: 8.1 ± 0.2 mmol/L
[3]; insulin 20 mU per rat, 1.0% BSA in saline, no DP
  Plasma Glucose at 60 minutes: 7.0 ± 0.1 mmol/L
[3]; insulin 40 mU per rat, 1.0% BSA in saline, no DP
  Plasma Glucose at 60 minutes: 5.2 ± 0.3 mmol/L
[3]; insulin alone, 10 mU
  effect on plasma glucose concentration: without effect on plasma glucose concentration
[4]; Mouse db/db
  Plasma Glucose at 60 min: 198 ± 31 mg/dL
[4]; Mouse db/m (normal)
  Plasma Glucose at 60 min: 102 ± 10 mg/dL
[4]; Mouse ob/+ (normal)
  Plasma Glucose at 60 min: 99.5 ± 6 mg/dL
[4]; Mouse ob/ob
  Plasma Glucose at 60 min: 167 ± 26 mg/dL
Sprague-Dawley rats; glucose administered orally
  Plasma Glucose at 60 min: 144 ± 12 mg/dL
Sprague-Dawley rats; i.p. glucose
  Plasma Glucose at 60 min: 121 ± 28 mg/dL
[5]
  hepatic glucose output: only reduced hepatic glucose output
Rhesus monkeys; +5 min., oral glucose + i.m. insulin 0.5 ml/kg of 20 mU/ml
  Plasma Glucose: 79 ± 9 mg/dL
Rhesus monkeys; +15 min., oral glucose + i.m. insulin
  Plasma Glucose: 72 ± 10 mg/dL
Rhesus monkeys; +30 min., oral glucose + i.m. insulin
  Plasma Glucose: 85 ± 11 mg/dL
Rhesus monkeys; +45 min., oral glucose + i.m. insulin
  Plasma Glucose: 88 ± 13 mg/dL
Rhesus monkeys; +60 min., oral glucose + i.m. insulin
  Plasma Glucose: 109 ± 14 mg/dL
Rhesus monkeys; +120 min., oral glucose + i.m. insulin
  Plasma Glucose: 108 ± 14 mg/dL
Rhesus monkeys; -5 min. (before administration), oral glucose + i.m. insulin group
  Plasma Glucose: 71 ± 3 mg/dL

## tetradecapeptide: synthetic tetradecapeptide copying hGH residues at positions 31 through 44 (FEEAYIPKEQKYSF; UniProt P01241 57-70, looked up, fragment)
Fat cells
  in vitro effects on fat cells: substantially the same in vitro effects on fat cells
rabbits
  in vivo hypoglycemic effect: absence of any in vivo hypoglycemic effect
Normal rats [6]
  in vivo hypoglycemic effect: absence of any in vivo hypoglycemic effect

## EEAYIPKEQKYSFLQ [DP, NH2 -Glu-Glu-Ala-Tyr-Ile-Pro-Lys-Glu-Gln-Lys-Tyr-Ser-Phe-Leu-Gln-COOH]
[2]; DP 25 μg per rat with 10 mU insulin in 1.0% BSA in saline
  Plasma Glucose at 60 minutes: 7.5 ± 0.1 mmol/L
[2]; DP 25 μg per rat, 1.0% BSA in saline, no insulin, fasted rats
  Plasma Glucose at 60 minutes: 8.1 ± 0.2 mmol/L
[2]; DP 50 μg per rat with 10 mU insulin in 1.0% BSA in saline
  Plasma Glucose at 60 minutes: 5.7 ± 0.3 mmol/L
[2]; DP 50 μg per rat, 1.0% BSA in saline, no insulin, fasted rats
  Plasma Glucose at 60 minutes: 7.7 ± 0.2 mmol/L
[2]; DP 100 μg per rat with 10 mU insulin in 1.0% BSA in saline
  Plasma Glucose at 60 minutes: 3.5 ± 0.1 mmol/L
[2]; DP 100 μg per rat, 1.0% BSA in saline, no insulin, fasted rats
  Plasma Glucose at 60 minutes: 8.0 ± 0.4 mmol/L
[2]; deletion peptide alone, up to 100 μg/rat
  effect on glycemia: without effect on glycemia
[2]; increasing doses of deletion peptide with 10 mU insulin
  hypoglycemic effects: progressively greater degrees of hypoglycemic effects
[2]; lowest dose of deletion peptide given with a low dose of insulin in BSA
  effect on plasma glucose: small significant decrease in plasma glucose
[3]; 100 μg DP in 1.0% BSA in saline, 0 mU insulin
  Plasma Glucose at 60 minutes: 8.1 ± 0.2 mmol/L
[3]; 100 μg DP with insulin 7 mU per rat
  Plasma Glucose at 60 minutes: 7.6 ± 0.1 mmol/L
[3]; 100 μg DP with insulin 10 mU per rat
  Plasma Glucose at 60 minutes: 3.5 ± 0.1 mmol/L
[3]; 100 μg DP with insulin 20 mU per rat
  Plasma Glucose at 60 minutes: 3.1 ± 0.1 mmol/L
[3]; 100 μg DP with insulin 40 mU per rat
  Plasma Glucose at 60 minutes: 2.7 ± 0.1 mmol/L
[3]; deletion peptide in addition to 10 mU insulin
  hypoglycemia: significant degree of hypoglycemia
[3]; higher doses of insulin with 100 μg deletion peptide
  potentiation of hypoglycemic effects of insulin: potentiated
[4]; all animals tested in Example 4 (mice and rats)
  potentiation of the hypoglycemic activity of insulin: potentiated the hypoglycemic activity of insulin
Rhesus monkeys; at all post-injection times
  potentiation of insulin effects: potentiated insulin effects
Normal rats [7]; administered alone
  hepatic glycogen synthesis: small, insulin-like effects in increasing hepatic glycogen synthesis
Normal rats [7]; concurrently administered with exogenous insulin
  effects of exogenous insulin: substantially augmented the effects of exogenous insulin
Normal rats [7]; deletion peptide alone, normal rats
  hypoglycemic effect: no hypoglycemic effect
[8]
  incorporation of labelled glucose into liver and skeletal muscle tissue: caused an alteration in the incorporation of labelled glucose
Hypophysectomized rats
  growth stimulating effect: no growth stimulating effect
[9]
  insulin-stimulated glucose uptake by isolated adipocytes: no effect on insulin-stimulated glucose uptake
[10]
  biological activities in in vivo systems: preliminary evidence of insulin secretory stimulation effects, effects on levels of free fatty acids, and effects on glucose uptake by hepatic and muscle tissue
Normal dog
  plasma and hepatic glucose output: minor transient fall
Normal dog; over a period of two hours
  glycemic effects: no glycemic effects
Normal rats [11]
  late increases in free fatty acids and glycemic effects: did not show either the late increases in free fatty acids nor the glycemic effects
[12]
  glucose tolerance: unspecified degree of improvement in glucose tolerance
[13]
  glucose utilization of insulin-stimulated fat cells: in vitro increase in glucose utilization

## hGH positions 1 through 15: fragment duplicating the sequence of amino acid residues at hGH positions 1 through 15 (FPTIPLSRLFDNAML; UniProt P01241 27-41, looked up, fragment)
[1]; hGH amino terminal fragment
  effect on glucose uptake: insulin potentiating effect on glucose uptake

## human growth hormone [hGH]
[14]
  blood levels of glucose: initially raise and then lower blood levels of glucose
  free fatty acids: lower free fatty acids within one hour of administration, followed by later increasing circulating fatty acids
